How the values were obtained:
[1] = biological target: T1, FASN Keto-reductase Domain (Homo sapiens, UniProt P49327); assay: Fatty Acid Synthase Keto-Reductase Domain (FASN KR) Inhibition; assay type: biochemical; conditions: mean where tested more than once; read-out: FASN K-R Domain pIC50 (converted)
T1 construct: 10 μL hFASN enzyme (full length, 300 ng, purified in house) and 360 μM NADPH; made in house
Outline: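 Keto-reductase activity followed as NADPH consumption (A340 drop between 0 and 20 min, room temperature) using in-house full-length hFASN, 360 μM NADPH and ethyl acetoacetate substrate (180 mM stock), pH 7.5 phosphate buffer.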

[2] = biological target: T2, hFASN enzyme (full length) (Homo sapiens, UniProt P49327); assay: Fatty Acid Synthase (FASN) Inhibition Scintillation Proximity Assay; assay type: biochemical; conditions: for IC50: mean where tested more than once, ~ = standard error of pIC50 larger than 0.5; for inhibition at 10 µM: read-out: FASN % Effect @1E−05M
T2 construct: 10 μL hFASN enzyme (full length, 300 ng, purified in house); made in house
T2 sequence (P49327 whole entry): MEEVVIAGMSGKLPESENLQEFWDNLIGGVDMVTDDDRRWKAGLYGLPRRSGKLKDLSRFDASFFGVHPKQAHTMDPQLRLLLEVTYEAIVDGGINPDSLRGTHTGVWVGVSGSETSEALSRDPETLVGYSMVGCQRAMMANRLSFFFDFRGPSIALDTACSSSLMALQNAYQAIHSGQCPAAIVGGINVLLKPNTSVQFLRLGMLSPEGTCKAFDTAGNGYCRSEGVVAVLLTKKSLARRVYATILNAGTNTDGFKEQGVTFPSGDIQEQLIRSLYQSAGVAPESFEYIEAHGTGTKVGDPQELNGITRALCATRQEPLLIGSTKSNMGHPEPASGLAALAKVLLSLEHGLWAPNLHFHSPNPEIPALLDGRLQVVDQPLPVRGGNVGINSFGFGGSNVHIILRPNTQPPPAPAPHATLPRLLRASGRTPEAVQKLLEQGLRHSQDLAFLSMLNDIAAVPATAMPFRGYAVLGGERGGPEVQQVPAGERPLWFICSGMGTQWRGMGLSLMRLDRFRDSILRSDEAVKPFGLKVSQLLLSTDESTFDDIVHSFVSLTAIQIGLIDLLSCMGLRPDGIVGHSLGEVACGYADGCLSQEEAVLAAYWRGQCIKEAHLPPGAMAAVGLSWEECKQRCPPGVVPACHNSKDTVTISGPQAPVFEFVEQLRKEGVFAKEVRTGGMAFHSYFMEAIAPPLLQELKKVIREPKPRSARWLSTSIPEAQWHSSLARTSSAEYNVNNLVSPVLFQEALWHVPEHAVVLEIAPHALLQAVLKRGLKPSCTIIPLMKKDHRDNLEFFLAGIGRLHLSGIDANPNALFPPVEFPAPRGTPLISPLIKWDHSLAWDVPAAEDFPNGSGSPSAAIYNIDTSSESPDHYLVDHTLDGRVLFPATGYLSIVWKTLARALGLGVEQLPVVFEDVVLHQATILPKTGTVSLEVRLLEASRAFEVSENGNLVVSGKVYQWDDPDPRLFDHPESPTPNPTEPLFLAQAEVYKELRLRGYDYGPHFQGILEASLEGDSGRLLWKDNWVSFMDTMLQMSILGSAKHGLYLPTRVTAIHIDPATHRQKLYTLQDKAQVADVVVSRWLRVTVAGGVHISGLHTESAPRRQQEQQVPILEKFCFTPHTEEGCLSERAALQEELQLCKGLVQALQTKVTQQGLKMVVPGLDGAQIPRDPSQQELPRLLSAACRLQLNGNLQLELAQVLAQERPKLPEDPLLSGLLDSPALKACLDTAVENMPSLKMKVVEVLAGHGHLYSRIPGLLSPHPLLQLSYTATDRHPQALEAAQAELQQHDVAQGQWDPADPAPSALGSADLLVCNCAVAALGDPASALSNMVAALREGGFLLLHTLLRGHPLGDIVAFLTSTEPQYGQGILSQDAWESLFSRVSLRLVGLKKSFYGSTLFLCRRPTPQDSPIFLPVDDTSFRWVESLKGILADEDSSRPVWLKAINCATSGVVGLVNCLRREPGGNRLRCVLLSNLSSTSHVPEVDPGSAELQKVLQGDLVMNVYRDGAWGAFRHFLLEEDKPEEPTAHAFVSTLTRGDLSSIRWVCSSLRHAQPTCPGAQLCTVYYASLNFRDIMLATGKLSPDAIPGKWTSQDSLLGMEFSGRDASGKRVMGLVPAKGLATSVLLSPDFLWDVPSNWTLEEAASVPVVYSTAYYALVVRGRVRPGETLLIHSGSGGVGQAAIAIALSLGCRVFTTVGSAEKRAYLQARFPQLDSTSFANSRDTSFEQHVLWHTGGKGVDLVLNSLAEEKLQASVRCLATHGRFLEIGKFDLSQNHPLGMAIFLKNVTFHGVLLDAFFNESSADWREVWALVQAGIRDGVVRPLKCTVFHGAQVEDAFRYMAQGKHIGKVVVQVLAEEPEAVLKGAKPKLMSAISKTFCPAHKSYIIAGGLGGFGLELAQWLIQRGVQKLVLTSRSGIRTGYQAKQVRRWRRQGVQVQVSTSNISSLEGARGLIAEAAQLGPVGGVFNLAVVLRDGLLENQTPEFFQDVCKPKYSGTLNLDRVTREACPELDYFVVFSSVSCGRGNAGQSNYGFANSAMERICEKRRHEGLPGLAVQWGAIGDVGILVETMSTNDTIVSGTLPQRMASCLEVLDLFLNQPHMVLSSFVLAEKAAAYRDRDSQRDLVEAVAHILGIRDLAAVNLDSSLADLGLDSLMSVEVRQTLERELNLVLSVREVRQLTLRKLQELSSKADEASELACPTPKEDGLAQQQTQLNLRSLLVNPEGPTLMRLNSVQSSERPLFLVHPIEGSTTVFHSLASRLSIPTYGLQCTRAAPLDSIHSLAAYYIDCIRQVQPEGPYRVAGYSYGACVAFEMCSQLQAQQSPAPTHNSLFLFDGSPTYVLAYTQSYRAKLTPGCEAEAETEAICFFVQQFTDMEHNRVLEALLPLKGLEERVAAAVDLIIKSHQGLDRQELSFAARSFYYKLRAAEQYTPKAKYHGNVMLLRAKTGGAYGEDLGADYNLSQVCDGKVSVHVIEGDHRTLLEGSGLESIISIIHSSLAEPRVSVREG
Outline: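 Eight compound concentrations (0.01–30 μM) tested in pH 7.5 phosphate buffer with DTT; human full-length enzyme converted [3H]-acetyl-CoA plus malonyl-CoA, with NADPH, over 60 min at room temperature. Hydrophobic [3H]-palmitate detected by bead proximity scintillation imaging; control-normalised data fitted for IC50/pIC50.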

A2780 ovarian cells [3] = assay: A2780 Ovarian Cell Proliferation Assay in Lipid Reduced Medium, without Palmitate; assay type: cell-based; conditions: Homo sapiens, A2780; lipid reduced medium, without palmitate, 96 h, MTT; read-out: Proliferation A2780 w/o Palmitate pIC50 (converted)
Outline: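 A2780 cells were seeded in 10% FCS medium and switched next day to 10% lipid-reduced serum without palmitate. Compounds at 0.01–30 μM were added with 0.2% DMSO, 0.2% fatty-acid-free BSA and 0.25% ethanol final. After 96 h, MTT absorbance at 544 nm was normalized to plate controls, and IC50/pIC50 came from a 4-parameter logistic fit.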

A2780 ovarian cells [4] = assay: A2780 Ovarian Cell Proliferation Assay in Lipid Reduced Medium, with Palmitate (control); assay type: cell-based; conditions: Homo sapiens, A2780; lipid reduced medium, 25 μM palmitate, 96 h, MTT; read-out: Proliferation A2780 with Palmitate pIC50 (converted)
Outline: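 Read-out was MTT absorbance at 544 nm after 96 h at 37 °C. Cells grown overnight in RPMI1640/10% FCS were moved to 10% lipid-reduced serum with compound plus palmitate (final 25 μM, 0.2% fatty-acid-free BSA, 0.2% DMSO). IC50 came from least-squares curve fitting, expressed as −log(IC50).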

T1 sequence (P49327 whole entry, the tested form may be a part): as the sequence (P49327 whole entry) above

IC50 [1] | IC50 [2] | inhibition at 10 µM [2] | IC50 (A2780 ovarian cells [3]) | IC50 (A2780 ovarian cells [4]) | Structure (SMILES)
324 nM | 120 nM | 108% | 120 nM | > 10000 nM | CCCCN1CCC(C(=O)Nc2cc(C(=O)N3CCC(c4ccc(-c5cnn(C)c5)cc4)CC3)ccc2C)C1 (stereo not drawn) [Compound 212, 1-butyl-N-(2-methyl-5-(4-(4-(1-methyl-1H-pyrazol-4-yl)phenyl)piperidine-1-carbonyl)phenyl)pyrrolidine-3-carboxamide]
195 nM | 45.7 nM | 111% | 64.6 nM | > 10000 nM | Cc1ccc(C(=O)N2CCC(c3ccc(-c4cnn(C)c4)cc3)CC2)cc1NC(=O)C1CN(CCC(C)C)C1 [Compound 213, 1-isopentyl-N-(2-methyl-5-(4-(4-(1-methyl-1H-pyrazol-4-yl)phenyl)piperidine-1-carbonyl)phenyl)azetidine-3-carboxamide]
282 nM | 166 nM | 107% | 275 nM | 9550 nM | CCCCCN1CC(C(=O)Nc2cc(C(=O)N3CCC(c4ccc(-c5cnn(C)c5)cc4)CC3)ccc2C)C1 [Compound 214, N-(2-methyl-5-(4-(4-(1-methyl-1H-pyrazol-4-yl)phenyl)piperidine-1-carbonyl)phenyl)-1-pentylazetidine-3-carboxamide]
309 nM | 105 nM | 107% | 191 nM | 9330 nM | CCCCCN1CCC(C(=O)Nc2cc(C(=O)N3CCC(c4ccc(-c5cnn(C)c5)cc4)CC3)ccc2C)C1 (stereo not drawn) [Compound 215, N-(2-methyl-5-(4-(4-(1-methyl-1H-pyrazol-4-yl)phenyl)piperidine-1-carbonyl)phenyl)-1-pentylpyrrolidine-3-carboxamide]
91.2 nM | 36.3 nM | 113% | 43.7 nM | 5620 nM | CCCCCCN1CCC(C(=O)Nc2cc(C(=O)N3CCC(c4ccc(-c5cnn(C)c5)cc4)CC3)ccc2C)CC1 [Compound 216]
501 nM | 174 nM | 105% | 214 nM | > 10000 nM | Cc1ccc(C(=O)N2CCC(c3ccc(-c4cnn(C5CCOCC5)c4)cc3)CC2)cc1NC(=O)c1ccc(NC(C)C)nc1 [Compound 217]
389 nM | 145 nM | 105% | 407 nM | 8510 nM | CCCCCCN1CCC(C(=O)Nc2cc(C(=O)N3CCC(c4ccc(-c5cnn(C)c5)cc4)CC3)ccc2C)C1 (stereo not drawn) [Compound 218, 1-hexyl-N-(2-methyl-5-(4-(4-(1-methyl-1H-pyrazol-4-yl)phenyl)piperidine-1-carbonyl)phenyl)pyrrolidine-3-carboxamide]
200 nM | 64.6 nM | 116% | 234 nM | > 10000 nM | Cc1ccc(C(=O)N2CCC(c3ccc(-c4cnn(C)c4)cc3)CC2)cc1NC(=O)C1CN(C(=O)C2CC2)C1 [Compound 219, 1-(cyclopropanecarbonyl)-N-(2-methyl-5-(4-(4-(1-methyl-1H-pyrazol-4-yl)phenyl)piperidine-1-carbonyl)phenyl)azetidine-3-carboxamide]
174 nM | 67.6 nM | 110% | 95.5 nM | > 10000 nM | Cc1ccc(C(=O)N2CCC(c3ccc(-c4cnn(C)c4)cc3)CC2)cc1NC(=O)C1CCN(C(=O)C2CC2)C1 (stereo not drawn) [Compound 220, 1-(cyclopropanecarbonyl)-N-(2-methyl-5-(4-(4-(1-methyl-1H-pyrazol-4-yl)phenyl)piperidine-1-carbonyl)phenyl)pyrrolidine-3-carboxamide]
245 nM | 75.9 nM | 109% | 91.2 nM | 5010 nM | Cc1ccc(C(=O)N2CCC(c3ccc(-c4cnn(CC5CCC5)c4)cc3)CC2)cc1NC(=O)c1ccc(NC(C)C)nc1 [Compound 221, N-(5-(4-(4-(1-(cyclobutylmethyl)-1H-pyrazol-4-yl)phenyl)piperidine-1-carbonyl)-2-methylphenyl)-6-(isopropylamino)nicotinamide]
60.3 nM | 22.4 nM | 113% | 8.71 nM | > 10000 nM | Cc1ccc(C(=O)N2CCC(c3ccc(-c4cnn(C)c4)cc3)CC2)cc1NC(=O)C1CN(C)C1 [Compound 222, 1-methyl-N-(2-methyl-5-(4-(4-(1-methyl-1H-pyrazol-4-yl)phenyl)piperidine-1-carbonyl)phenyl)azetidine-3-carboxamide]
141 nM | 69.2 nM | 102% | 148 nM | 2040 nM | Cc1ccc(C(=O)N2CCC(c3ccc(-c4ccsc4)cc3)CC2)cc1NC(=O)c1ccc(NC(C)C)nc1 [Compound 223, 6-(isopropylamino)-N-(2-methyl-5-(4-(4-(thiophen-3-yl)phenyl)piperidine-1-carbonyl)phenyl)nicotinamide]
282 nM | 170 nM | 92% | 372 nM | 5750 nM | Cc1ccc(C(=O)N2CCC(c3ccc(-c4ccccc4F)cc3)CC2)cc1NC(=O)c1ccc(NC(C)C)nc1 [Compound 224, N-(5-(4-(2′-fluoro-[1,1′-biphenyl]-4-yl)piperidine-1-carbonyl)-2-methylphenyl)-6-(isopropylamino)nicotinamide]
457 nM | 339 nM | 79% | 589 nM | 1580 nM | Cc1ccc(C(=O)N2CCC(c3ccc(-c4ccccc4)cc3)CC2)cc1NC(=O)c1ccc(NC(C)C)nc1 [Compound 225, N-(5-(4-([1,1′-biphenyl]-4-yl)piperidine-1-carbonyl)-2-methylphenyl)-6-(isopropylamino)nicotinamide]
525 nM | 363 nM | 79% | 692 nM | 2510 nM | Cc1ccc(C(=O)N2CCC(c3ccc(-c4cccc(F)c4)cc3)CC2)cc1NC(=O)c1ccc(NC(C)C)nc1 [Compound 230, N-(5-(4-(3′-fluoro-[1,1′-biphenyl]-4-yl)piperidine-1-carbonyl)-2-methylphenyl)-6-(isopropylamino)nicotinamide]
107 nM | 33.9 nM | 114% | 115 nM | > 10000 nM | COc1ccc(C(=O)N2CCC(c3ccc(-c4cnn(C)c4)cc3)CC2)cc1NC(=O)c1ccc(Cl)nc1 [Compound 231, 6-chloro-N-(2-methoxy-5-(4-(4-(1-methyl-1H-pyrazol-4-yl)phenyl)piperidine-1-carbonyl)phenyl)nicotinamide]
490 nM | 324 nM | 85% | 389 nM | 6610 nM | Cc1ccc(C(=O)N2CCC(c3ccc(-c4ccccc4C)cc3)CC2)cc1NC(=O)c1ccc(NC(C)C)nc1 [Compound 232, 6-(isopropylamino)-N-(2-methyl-5-(4-(2′-methyl-[1,1′-biphenyl]-4-yl)piperidine-1-carbonyl)phenyl)nicotinamide]
776 nM | 575 nM | 72% | 759 nM | 955 nM | Cc1cccc(-c2ccc(C3CCN(C(=O)c4ccc(C)c(NC(=O)c5ccc(NC(C)C)nc5)c4)CC3)cc2)c1 [Compound 233, 6-(isopropylamino)-N-(2-methyl-5-(4-(3′-methyl-[1,1′-biphenyl]-4-yl)piperidine-1-carbonyl)phenyl)nicotinamide]
102 nM | 53.7 nM | 112% | 74.1 nM | 1580 nM | Cc1ccc(C(=O)N2CCC(c3ccc(-c4ccoc4)cc3)CC2)cc1NC(=O)c1ccc(NC(C)C)nc1 [Compound 235, N-(5-(4-(4-(furan-3-yl)phenyl)piperidine-1-carbonyl)-2-methylphenyl)-6-(isopropylamino)nicotinamide]
355 nM | ~309 nM | 74% | 603 nM | 1950 nM | Cc1ccc(C(=O)N2CCC(c3ccc(-c4cccs4)cc3)CC2)cc1NC(=O)c1ccc(NC(C)C)nc1 [Compound 236, 6-(isopropylamino)-N-(2-methyl-5-(4-(4-(thiophen-2-yl)phenyl)piperidine-1-carbonyl)phenyl)nicotinamide]
380 nM | 129 nM | 101% | 166 nM | > 10000 nM | Cc1ccc(C(=O)N2CCC(c3ccc(-c4cnn(C)c4)cc3)C2)cc1NC(=O)c1ccc(NC(C)C)nc1 (stereo not drawn) [Compound 237, 6-(isopropylamino)-N-(2-methyl-5-(3-(4-(1-methyl-1H-pyrazol-4-yl)phenyl)pyrrolidine-1-carbonyl)phenyl)nicotinamide]

— patent publication US9562035B2, “Benzamide derivative useful as FASN inhibitors for the treatment of cancer” (Janssen Pharmaceutica NV, priority 2013, dated 2017)
